The target of assay [1] is T1, cloned human δ receptors (Homo sapiens, UniProt P41143).
T1 construct: expressed in transfected cells; host or cells: HEK-293S cells
Nature of the assay: Human δ receptor binding assay (125I-Deltorphin II displacement).

Assay [2] addresses T1, cloned human δ receptors. Nature of the assay: Human δ receptor functional assay (GTP[γ]35S binding), high and low receptor expression. It counts as biochemical. The procedure:
Human 293S cells expressing cloned human κ, δ and μ receptors and neomycin resistance are grown in suspension at 37° C. and 5% CO2 in shaker flasks containing calcium-free DMEM10% FBS, 5% BCS, 0.1% Pluronic F-68, and 600 μg/ml geneticin.
Cells are pelleted and resuspended in lysis buffer (50 mM Tris, pH 7.0, 2.5 mM EDTA, with PMSF added just prior to use to 0.1 mM from a 0.1 M stock in ethanol), incubated on ice for 15 min, then homogenized with a polytron for 30 sec. The suspension is spun at 1000 g (max) for 10 min at 4° C. The supernatant is saved on ice and the pellets resuspended and spun as before. The supernatants from both spins are combined and spun at 46,000 g(max) for 30 min. The pellets are resuspended in cold Tris buffer (50 mM Tris/Cl, pH 7.0) and spun again. The final pellets are resuspended in membrane buffer ( 50 mM Tris, 0.32 M sucrose, pH 7.0). Aliquots (1 ml) in polypropylene tubes are frozen in dry ice/ethanol and stored at −70° C. until use. The protein concentrations are determined by a modified Lowry assay with sodium dodecyl sulfate.
The agonist activity of the compounds is measured by determining the degree to which the compounds receptor complex activates the binding of GTP to G-proteins to which the receptors are coupled. In the GTP binding assay, GTP[γ]^35S is combined with test compounds and membranes from HEK-293S cells expressing the cloned human opioid receptors or from homogenised rat or mouse brain. Agonists stimulate GTP[γ]^35S binding in these membranes. The EC50 and Emax values of compounds are determined from dose-response curves. Right shifts of the dose response curve by the delta antagonist naltrindole are performed to verify that agonist activity is mediated through delta receptors. For human […] functional assays, EC50 (low) is measured when the human δ receptors used in the assay were expressed at lower levels in comparison with those used in determining EC50 (high). The Emax values were determined in relation to the standard δ agonist SNC80, i.e., higher than 100% is a compound that have better efficacy than SNC80.
Rat brain membranes are thawed at 37° C., passed 3 times through a 25-gauge blunt-end needle and diluted in the GTPYS binding (50 mM Hepes, 20 mM NaOH, 100 mM NaCl, 1 mM EDTA, 5 mM MgCl2, pH 7.4, Add fresh: 1 mM DTT, 0.1% BSA). 120 μM GDP final is added membranes dilutions. The EC50 and Emax of compounds are evaluated from 10-point dose-response curves done in 300 μl with the appropriate amount of membrane protein (20 μg/well) and 100000-130000 dpm of GTPγ^35S per well (0.11-0.14 nM). The basal and maximal stimulated binding are determined in absence and presence of 3 μM SNC-80. The assay performed on HEK 293s cells stably expressing cloned Delta receptors is done in a slightly different buffer (50 mM Hepes, 20 mM NaOH, 200 mM NaCl, 1 mM EDTA, 5 mM MgCl2, pH 7.4, Add fresh: 0.5% BSA, no DTT) and with a 3 μM final conc. of GDP.
For orientation: GTPγS is a poorly hydrolysed GTP analogue; its binding reports G protein activation.

In a further assay the target is T2, cloned human μ receptors (Homo sapiens, UniProt P35372).
T2 construct: expressed in transfected cells; host or cells: Human 293S cells
Nature of the assay: Human μ receptor binding assay (125I-FK33824 displacement).

In another assay the target is cloned human κ receptors (Homo sapiens, UniProt P41145). As to the kind of experiment: Human κ receptor binding assay (125I-DPDYN displacement). To be noted: Table 1.
The target in assay [3] is T3, δ receptors in rat brain membranes (Rattus norvegicus, UniProt P33533).
T3 construct: membranes from HEK-293S cells expressing the cloned human opioid receptors or from homogenised rat or mouse brain; from tissue; host or cells: rat brain
As to the kind of experiment: Rat brain functional assay (GTPγ35S binding). Format: biochemical. The procedure:
Rat brains are weighed and rinsed in ice-cold PBS (containing 2.5 mM EDTA, pH 7.4). The brains are homogenized with a polytron for 30 sec (rat) in ice-cold lysis buffer (50 mM Tris, pH 7.0,2.5 mM EDTA, with phenylmethylsulfonyl fluoride added just prior use to […] from a 0.5M stock in DMSO:ethanol).
The agonist activity of the compounds is measured by determining the degree to which the compounds receptor complex activates the binding of GTP to G-proteins to which the receptors are coupled. In the GTP binding assay, GTP[γ]^35S is combined with test compounds and membranes from HEK-293S cells expressing the cloned human opioid receptors or from homogenised rat or mouse brain. […] The EC50 and Emax values of compounds are determined from dose-response curves. […] For human a receptor functional assays, EC50 (low) is measured when the human δ receptors used in the assay were expressed at lower levels in comparison with those used in determining EC50 (high). […]
Rat brain membranes are thawed at 37° C., passed 3 times through a 25-gauge blunt-end needle and diluted in the GTPYS binding (50 mM Hepes, 20 mM NaOH, 100 mM NaCl, 1 mM EDTA, 5 mM MgCl2, pH 7.4, Add fresh: 1 mM DTT, 0.1% BSA). […] The EC50 and Emax of compounds are evaluated from 10-point dose-response curves done in 300 μl with the appropriate amount of membrane protein (20 μg/well) and 100000-130000 dpm of GTPγ^35S per well (0.11-0.14 nM). […]

Setting [4] is: Table 2, lower expression, relative to SNC80, range over compounds 1,2,4,5, read-out: Human δ %EMax (low).

Where two headings read alike, the source gives them in different places.

The IC50 is the concentration needed to halve the response being measured. For orientation: EC50 means the concentration at which the effect is half-maximal. Usually Emax stands for the size of the effect at its maximum, as opposed to the concentration needed.

T2 sequence (P35372 whole entry): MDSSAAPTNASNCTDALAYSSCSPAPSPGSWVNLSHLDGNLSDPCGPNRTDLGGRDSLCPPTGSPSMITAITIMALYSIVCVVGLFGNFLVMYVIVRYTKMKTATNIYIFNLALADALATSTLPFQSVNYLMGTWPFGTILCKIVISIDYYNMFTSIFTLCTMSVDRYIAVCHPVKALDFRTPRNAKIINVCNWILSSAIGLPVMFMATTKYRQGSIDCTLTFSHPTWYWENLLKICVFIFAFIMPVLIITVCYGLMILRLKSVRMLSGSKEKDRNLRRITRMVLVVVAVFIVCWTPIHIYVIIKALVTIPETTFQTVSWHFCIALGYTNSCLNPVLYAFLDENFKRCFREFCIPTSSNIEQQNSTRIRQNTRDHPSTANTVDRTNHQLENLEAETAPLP
T1 sequence (P41143 whole entry): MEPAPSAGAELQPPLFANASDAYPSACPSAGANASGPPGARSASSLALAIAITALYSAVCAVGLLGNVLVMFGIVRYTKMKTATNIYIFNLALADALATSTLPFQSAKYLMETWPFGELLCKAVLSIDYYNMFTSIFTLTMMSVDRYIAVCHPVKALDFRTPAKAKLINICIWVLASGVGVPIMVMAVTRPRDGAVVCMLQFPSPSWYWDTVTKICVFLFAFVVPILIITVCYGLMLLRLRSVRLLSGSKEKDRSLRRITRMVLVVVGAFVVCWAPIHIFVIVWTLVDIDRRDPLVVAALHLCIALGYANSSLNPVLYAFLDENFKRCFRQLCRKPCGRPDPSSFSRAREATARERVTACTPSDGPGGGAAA
T3 sequence (P33533 whole entry): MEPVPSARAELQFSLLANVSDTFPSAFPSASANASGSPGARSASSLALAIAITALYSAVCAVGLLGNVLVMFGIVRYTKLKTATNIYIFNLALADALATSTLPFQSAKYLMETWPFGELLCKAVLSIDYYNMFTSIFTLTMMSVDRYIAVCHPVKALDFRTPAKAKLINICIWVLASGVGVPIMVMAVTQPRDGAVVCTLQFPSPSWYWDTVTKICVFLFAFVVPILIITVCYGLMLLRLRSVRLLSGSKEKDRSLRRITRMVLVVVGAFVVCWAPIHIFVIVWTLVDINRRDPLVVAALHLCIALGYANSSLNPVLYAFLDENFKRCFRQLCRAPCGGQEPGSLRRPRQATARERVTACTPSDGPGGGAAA
cloned human κ receptors, sequence (P41145 whole entry): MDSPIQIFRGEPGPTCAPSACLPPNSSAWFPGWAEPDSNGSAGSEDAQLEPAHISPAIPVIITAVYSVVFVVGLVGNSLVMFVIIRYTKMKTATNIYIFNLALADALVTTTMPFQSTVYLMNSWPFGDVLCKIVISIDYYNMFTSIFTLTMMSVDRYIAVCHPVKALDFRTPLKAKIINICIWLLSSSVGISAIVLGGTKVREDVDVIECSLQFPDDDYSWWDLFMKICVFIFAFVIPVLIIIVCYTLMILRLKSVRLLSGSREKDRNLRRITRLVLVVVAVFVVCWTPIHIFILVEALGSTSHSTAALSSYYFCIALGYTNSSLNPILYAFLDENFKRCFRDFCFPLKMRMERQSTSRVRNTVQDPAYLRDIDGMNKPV

Take `CCN(CC)C(=O)c1ccc(C(=C2CCN(Cc3cccnc3)CC2)c2cccc(NS(C)(=O)=O)c2)cc1` [Compound 4, N,N-diethyl-4-[[3-[(methylsulfonyl)amino]phenyl][1-(3-pyridinylmethyl)4-piperidinylidene]methyl]-benzamide]: the IC50 fell in the range of 0.18 to 0.35 nM at cloned human δ receptors [1] and 77.9 to 301 nM on cloned human μ receptors. The molecule also returned an EC50 at cloned human δ receptors [2] of 5.25 to 19.3 nM. Besides, the Emax at cloned human δ receptors [2] (setting [4]) fell in the range of 106 to 126%.

As to `CCN(CC)C(=O)c1ccc(C(=C2CCN(Cc3ccccc3)CC2)c2cccc(NS(C)(=O)=O)c2)cc1` [Compound 3, N,N-diethyl-4-[[1-(phenylmethyl)-4-piperidinylidene][3-[(methylsulfonyl)amino]phenyl]methyl]-benzamide], the IC50 at cloned human δ receptors [1] was determined as 0.56 nM; on cloned human κ receptors, 1050 nM; at cloned human μ receptors it was 35 nM. Further, the EC50 was determined as 0.53 nM at cloned human δ receptors [2] and 1.32 nM in assay [3]. Further, the Emax was determined as 99% on cloned human δ receptors [2] (Table 1, higher expression, relative to standard δ agonist SNC80, read-out: Human δ % EMax (high)) and 145% in assay [3] (Table 1, rat brain membranes, relative to SNC80).

For `CCN(CC)C(=O)c1ccc(C(=C2CCN(Cc3nccs3)CC2)c2cccc(NS(C)(=O)=O)c2)cc1` [Compound 5], the results for the IC50 on cloned human δ receptors [1] and at cloned human μ receptors were 0.18 to 0.35 nM and 77.9 to 301 nM, respectively. Moreover, on cloned human δ receptors [2], the half-maximal effective concentration (EC50) lay within 5.25 to 19.3 nM. Also, on cloned human δ receptors [2] (setting [4]), the Emax is 106 to 126%.

In the case of `CCN(CC)C(=O)c1ccc(C(=C2CCN(Cc3ccco3)CC2)c2cccc(NS(C)(=O)=O)c2)cc1` [Compound 2, N,N-diethyl-4-[[l-(2-furanylmethyl)-4-piperidinylidene][3-[(methylsulfonyl)amino]phenyl]methyl]-benzamide], the results for the IC50 on cloned human δ receptors [1] and on cloned human μ receptors were 0.18 to 0.35 nM and 77.9 to 301 nM, respectively. For the same molecule, on cloned human δ receptors [2], the EC50 was 5.25 to 19.3 nM. Also, the Emax at cloned human δ receptors [2] (setting [4]) lay within 106 to 126%.

In the case of `CCN(CC)C(=O)c1ccc(C(=C2CCN(Cc3cccs3)CC2)c2cccc(NS(C)(=O)=O)c2)cc1` [Compound 1, N,N-diethyl-4-{{3-[(methylsulfonyl)amino]phenyl}[1-(thien-2-ylmethyl)piperidin-4-ylidene]methyl}benzamide], the IC50 on cloned human δ receptors [1] lay within 0.18 to 0.35 nM; at cloned human μ receptors it was 77.9 to 301 nM. The molecule also registered an EC50 on cloned human δ receptors [2] of 5.25 to 19.3 nM. Moreover, at cloned human δ receptors [2] (setting [4]), the Emax is 106 to 126%.

Values taken from patent US20060148850A1, “4-{'3-(Sulfonylamino) phenyl!'1-(cyclymethyl) piperidin-4-ylidene! methyl}benazmide derivativess as delta opioid receptor ligands for the treatment of pain, anxiety and functional gastrointestinal disorder” (AstraZeneca AB, priority 2003, published 2006).
